Patent publication US6136841A, “3-, 8-substituted deuteroporphyrin derivatives, pharmaceutical agents that contain the latter, process for their production and their use in photodynamic therapy and MRI diagnosis” (Schering Aktiengesellschaft, priority 1998, dated 2000)
pIC50: −log10 of the molar value. Read-outs that look alike come from different tables or passages of the source.

Legend:
skin = settings: in vivo; cited from earlier work
[1] = system: human colon carcinoma (HT-29 P9); assay: Phototoxicity on a tumor cell culture, xenon lamp irradiation, live-dead coloration (Example 11); format: cell-based; settings: irradiated with xenon lamp 8.5 k Lux, UV filter, three days; PE = porphyrin unit; 4320 min; read-out: ED50 (concentration at which about half of the cells are no longer vital)
Protocol: Determination of the phototoxicity (ED50) of compound Ic of WO 94/07894 (I) and of the title compound of Example 1d) (II) on a tumor cell culture.
In 25 ml culture flasks, a cell culture of human colon carcinoma (HT-29 P9) is reproduced for 3 days at 37° C. The cultures are divided into two groups and mixed with solutions of test substances (50 mmol of porphyrin unit (PE)/l, diluted with fetal calf serum) in increasing amounts (0; 1.5; 5; 8.5; 12; 15.5; 19 μmol of PE/l). The samples are irradiated for three days with a xenon lamp (8.5 k Lux, UV filter). The first group daily received 2 irradiations of 30 minutes each at an interval of 4 hours. For the rest of the time, it remains in the dark in an incubator. The second group is not exposed to light and remains in the dark in the incubator for the entire time. On the fourth day, the cell growth is determined by live-dead coloration and counting with the counting chamber.
The table indicates the concentration at which about half of the cells are no longer vital. (I: Example 1c of DE 4232925; II: Title compound of Example 1d)

[2] = system: human colon carcinomas (HT-29 P9); format: in vivo, hairless mouse
Protocol: Phototoxic effect of the compound [mu-16,16'-(7,12-diethyl-3,8,13,17-tetramethylporphyrin-2,18-diyl]bis[3,6,9-tris(carboxymethyl)-11,14-dioxo-3,6,9,12,13-pentaazahexadecanoato]}(8-)]}digadolinato(2-), disodium (Example 1c of WO 94/07894) on a tumor of a hairless mouse
Intracutaneous human colon carcinomas (HT-29 P9) are implanted in the sides of 15 hairless mice that weigh 24-30 g. The tumors are allowed to grow to a size of 5-10 mm. […] On days 1 and 3, i.v. substance is administered to the anesthetized animals. In this case, the animals of group 1 receive 2×130 μl of 0.9% NaCl solution, and they remain in the dark for the entire time. The animals of the second group receive 2×130 μl of a 100 mmol solution of the title compound, which corresponds to a dose of 2×0.5 mmol/kg of body weight. In each case, 30 minutes after administration, the animals are exposed to the light of a xenon lamp (8.5 k Lux, 1 cm glass as a UV filter) for 45 minutes. They spend the rest of the test time in the dark. 2×130 μl of a 100 mmol solution of test substance is also injected into the animals of the third group. The animals remain in the dark, however, for the duration of the test. On the 6th day after the substance is administered, the animals are sacrificed in ether. The tumor is measured, examined macroscopically, removed and tested histologically. […] In group 1, the range is 6.5×7.7 mm^2 up to 8.6×12.0 mm^2. In the very large tumors, which are fed by numerous blood vessels, small lesions of the skin (possibly bite marks) and in some cases deeper bleeding are evident in the center. […] With the animals of group 2, the following observations are made: […]

Compound | Duration of skin sensitization (skin) | pIC50 [1] | Histology: diameter of multifocal central necrosis ([2]; group 2, 2×0.5 mmol/kg i.v. + light, three non-eroded tumors) | Phototoxic action (overall) ([2]; group 2, substance + light) | Tumor growth into the muscle layer ([2]; group 2, substance + light) | Tumor size / tumor growth at end of test ([2]; group 2, substance + light) | Histology: diameter of multifocal central necrosis ([2]; group 3, 2×130 μl of 100 mmol solution, kept in the dark) | Tumor growth ([2]; group 3, substance, kept in the dark)
Oc1cccc(-c2c3nc(c(-c4cccc(O)c4)c4ccc([nH]4)c(-c4cccc(O)c4)c4nc(c(-c5cccc(O)c5)c5ccc2[nH]5)CC4)C=C3)c1 [m-THPC] | ~ 3 weeks |  |  |  |  |  |  | 
[mu-16,16'-(7,12-diethyl-3,8,13,17-tetramethylporphyrin-2,18-diyl]bis[3,6,9-tris(carboxymethyl)-11,14-dioxo-3,6,9,12,13-pentaazahexadecanoato]}(8-)]}digadolinato(2-), disodium [Example 1c of WO 94/07894] |  | 5.19 | 1.5-2.1 mm | strong phototoxic action | The tumor did not grow into the muscle layer | Comparative measurement of tumor size was no longer possible in view of the extent of the destruction of the tumors. Tumor growth took place, if at all, only in the periphery and in deep tumor layers | 0.1-0.8 mm | The tumors continue to fluorish
{Mu-[(16,16'-[zinc(II)-7,12-diethyl-3,8,13,17-tetramethylporphyrin-2,18-diyl]-bis[3,6,9-tris(carboxymethyl)-11,14-dioxo-3,6,9,12,13-pentaazahexadecanoato]}(8-)]}-digadolinato(2-), disodium [Example 1d] |  | 5.29 |  |  |  |  |  | 
